This note sets out measurements from US11951178B2, “Methods for treating subjects suffering from acute myeloid leukemia with FLT3 ligand-targeted miR-150 nanoparticles” (University of Cincinnati, priority 2016, dated 2024).

Molecules are shown by their SMILES.

Data set [1] concerns primary MLL-AF9 AML cells. Briefly: MLL-AF9 AML secondary BMT recipient mouse model. The following applies: MLL-AF9 AML mice; nanoparticles 0.5 mg/kg i.v., JQ1 50 mg/kg i.p., every other day; PBS control 54 days. In kind it is in vivo.
Method: The same MLL-AF9 AML mouse model was employed. […] All the P values were detected by log-rank test.
After the onset of secondary AML, the recipient mice were treated with PBS control, 0.5 mg/kg G7-NH2-miR-150, or G7-Flt3L-miR-150, i.v., every other day, until the PBS-treated control group all died of leukemia.
For the JQ1 and nanoparticle combination treatment experiment, after the onset of AML, the recipient mice were treated with PBS control, or 50 mg/kg JQ1, i.p., alone, or together with 0.5 mg/kg G7-NH2-miR-150, or G7-Flt3L-miR-150, i.v., every other day, until the PBS-treated control group all died of leukemia.
The in vivo therapeutic effects of the miR-150 nanoparticles were also investigated in a MLL-rearranged leukemic mouse model.
The nature of data set [2]: Blood cell counts of normal mice after nanoparticle/drug administration (effects on normal hematopoiesis).
Method: FIG. 12 provides an analysis of the potential influence of the nanoparticles on hematopoietic system in normal mice, C57BL/6 wild type mice were treated with 0.5 mg/kg PBS (Control/Ctrl), G7-NH2, G7-Flt3L, G7-NH2-miR-150 or G7-Flt3L-miR-150, i.v., every other day, for ten times. Mice were sacrificed 12 weeks after the last administration, subsequent Wright-Giemsa stained PB and BM, and H&E stained spleen and liver of the animals are shown.
[3] abbreviates: normal C57BL/6 mice, 50 mg/kg JQ1 and/or 0.5 mg/kg nanoparticles, i.v., every day for 15 days, 4 weeks after the last administration.

In data set [1], `Cc1sc2c(c1C)C(c1ccc(Cl)cc1)=N[C@@H](CC(=O)OC(C)(C)C)c1nnc(C)n1-2` [JQ1] had a median survival of 69.5 days. Moreover, in data set [2] (setting [3]), the BA was 0.01 ± 0.0 K/μl, the EO turned out to be 0.04 ± 0.04 K/μl, the LY is 5.57 ± 0.83 K/μl and the MO is 0.36 ± 0.32 K/μl. Moreover, in data set [2] (setting [3]), the NE came out at 1.2 ± 0.62 K/μl, the PLT is 688 ± 110.3 K/μl, the RBC is on record as 8.12 ± 1.13 M/μl and the WBC was determined as 7.18 ± 0.76 K/μl. In addition, the “noticeable (side) effects on normal hematopoiesis” value in data set [2] (normal mice in vivo) was “did not cause any noticeable side effects”.
